Data taken from US10251871B2, “Compositions and methods for treatment of edema” (Memorial Sloan Kettering Cancer Center, priority 2015, dated 2019).

Assays:
[1] = tested on: popliteal lymph node dissection (PLND) mouse model; assay: Popliteal lymph node dissection (PLND) hind limb model of lymphatic injury
[2] = tested on: hind limb lymphatic ablation with DT; assay: Hind limb lymphatic ablation with DT; assay type: in vivo, mouse
[3] = tested on: mouse tail model of lymphedema; assay: Mouse tail model of lymphedema (tail volume, histology, immunostaining, lymphoscintigraphy, NIR imaging, PCR, ELISA); assay type: in vivo, C57BL/6J mice
[4] = topical captopril 5% once daily for 2 weeks after PLND, vs control
[5] = captopril after DT lymphatic ablation, ipsilateral limb vs ipsilateral control
[6] = topical captopril 5% once daily, 6 weeks after tail lymphatic ablation, vs control
[7] = systemic pirfenidone once daily for 2 weeks from 2 weeks after PLND, 4 weeks after PLND, vs vehicle
[8] = systemic pirfenidone, 4 weeks after PLND, vs control
[9] = systemic pirfenidone, oral 400 mg/kg daily for 3 weeks from 7 weeks after surgery, vs control
[10] = systemic pirfenidone, vs control
[11] = topical pirfenidone 1 mg/ml daily for 3 weeks from 7 weeks after surgery, vs control
[12] = topical pirfenidone, vs control

For `C[C@H](CS)C(=O)N1CCC[C@H]1C(=O)O` [captopril], the “T cell (CD3+) infiltration in hind limb tissues” value [1, 4] was “decreases”, the “hind limb collecting lymphatic pumping (packet frequency)” value [1, 4] was “increases” and the “lymphangiogenesis (LYVE-1+ vessels)” value [1, 4] was “increases”. The “macrophage (F4/80+) infiltration in hind limb tissues” value [1, 4] was “decreases”, the “trafficking of dendritic cells (FITC+CD11c cells in inguinal lymph nodes)” value [1, 4] was “increases” and the lymphatic function ([1]; topical captopril 5% once daily for 2 weeks after PLND, vs vehicle) was “improved lymphatic function”. The “LYVE-1+ lymphatic vessel area” value [2, 5] was “significant decrease”, the “T cell (CD3+) infiltration in hind limb tissues” value [2, 5] was “decreases” and the “hind limb angiotensin converting enzyme (ACE) expression” value [2, 5] was “decreases”. The “hind limb collecting vessel smooth muscle (α-SMA) deposition” value [2, 5] was “decreases”, the “hind limb lymphangiogenesis (LYVE-1+ lymphatic vessels)” value [2, 5] was “decreases” and the “hind limb macrophage (F4/80+) infiltration” value [2, 5] was “decreases”. For the same compound, the “hind limb type I collagen deposition” value [2, 5] was “decreases”, the “formation of collateral lymphatics (ICG)” value ([2]; captopril after DT lymphatic ablation, vs control) was “increases” and the foot swelling ([2]; captopril treatment after hind limb lymphatic ablation with DT, vs control) was “obvious decrease”. For the same compound, the ACE staining area [3, 6] was “significant decrease”, the “LYVE-1+ lymphatic vessel area” value [3, 6] was “significant decrease” and the “dermal type I collagen staining area” value [3, 6] was “significant decrease”. For the same compound, the “number of lymphatic vessels (LYVE-1+) crossing the region of the tail wound” value [3, 6] was “increases”, the “perilymphatic CD3+ cells/vessel” value [3, 6] was “significant decrease” and the “perilymphatic F4/80 cells/vessel” value [3, 6] was “significant decrease”. The “subcutaneous fibroadipose tissue deposition” value [3, 6] was “significant decrease” and the “tail collecting vessel pumping (contraction) frequency” value ([3]; topical captopril ointment, 6 weeks after tail lymphatic ablation, vs control) was “increases”.

In the case of `C/C(O)=C(\C#N)C(=O)Nc1ccc(C(F)(F)F)cc1` [teriflunomide], the “increase in number of DCs trafficked to the inguinal lymph node (FITC painting)” value ([1]; topical teriflunomide 27 mg/ml after PLND, vs control) is reported as “more than 5 fold”, the “increase in formation of collateral lymphatic vessels bypassing the zone of injury (ICG near infra-red imaging)” value ([1]; topical teriflunomide 27 mg/ml once daily for 2 weeks from 2 weeks after PLND, vs vehicle) is reported as 4.5 fold and the “decrease in tail volume” value ([3]; topical teriflunomide 27 mg/ml once daily for 4 weeks from 2 weeks after surgery, 6 weeks after lymphatic ablation, vs vehicle) is reported as about 6 fold. The “decrease in number of infiltrating CD4+ cells in tail tissues” value ([3]; topical teriflunomide 27 mg/ml, vs control) was “more than 8 fold”.

With `Cc1ccc(=O)n(-c2ccccc2)c1` [pirfenidone] the “lymphatic vessels density (LYVE-1) in the hind limb” value ([1]; systemic pirfenidone once daily for 2 weeks from 2 weeks after PLND, 4 weeks after PLND, vs control) was “marked increase”, the “dermal backflow and capillary vessel leakage (NIR lymphangiography)” value [1, 7] was “markedly less” and the “increase in rate of collecting lymphatic vessel contraction” value [1, 7] was 2 fold. For the same compound, the “perilymphatic expression of iNOS by inflammatory cells” value [1, 8] was “significant decrease”, the “perilymphatic infiltration of inflammatory cells (CD45+)” value [1, 8] was “significant decrease” and the “TGF-β1 protein accumulation (ELISA)” value ([3]; pirfenidone (FIG. 20I: systemic), vs control) was “decreased accumulation”. For the same compound, the “accumulation of IFN-γ protein (ELISA)” value ([3]; pirfenidone (FIG. 20J: systemic), vs control) was “significant decrease”, the “VEGF-C protein accumulation (ELISA)” value ([3]; pirfenidone (FIG. 20K: systemic), vs control) was “no difference” and the “numbers of infiltrating CD4+ cells” value ([3]; pirfenidone treatment (systemic and topical, FIG. 20A, 20D), vs control) was “marked decreases”. For the same compound, the “numbers of infiltrating CD3+ cells” value ([3]; pirfenidone treatment from 7 weeks after surgery, vs control) was “marked decreases”, the “lymphatic vessels density (LYVE-1) in the tail” value ([3]; pirfenidone, vs control) was “marked increase” and the “type I collagen around collecting lymphatics (α-SMA+/podoplanin+)” value ([3]; pirfenidone-treated animals vs control) was “essentially normal lymphatic vessels”. The soft tissue thickness [3, 9] was “markedly decreased”, the tail volume [3, 9] was “markedly decreased” and the “F4/80+ cellular infiltration in lymphedematous tail tissues” value [3, 10] was “no difference”. For the same compound, the “accumulation of TGF-β1+ cells” value [3, 10] was “markedly decreased”, the “accumulation of pSMAD3+ cells” value [3, 10] was “markedly decreased” and the “dermal and subcutaneous type I collagen deposition” value [3, 10] was “significantly decreased”. The “increase in decay-adjusted 99Tc uptake of the sacral lymph nodes” value [3, 10] was about 4 fold, the “increase in peak nodal uptake of 99Tc” value [3, 10] was about 4 fold and the “numbers of leukocytes infiltrating the dermis and subcutaneous fat” value [3, 10] was “markedly decreased”. For the same compound, the “rate of 99Tc uptake (slope of decay-adjusted curve)” value [3, 10] was “increased”, the soft tissue thickness [3, 11] was “markedly decreased” and the tail volume [3, 11] was “markedly decreased”. For the same compound, the “F4/80+ cellular infiltration in lymphedematous tail tissues” value [3, 12] was “no difference”, the “accumulation of TGF-β1+ cells” value [3, 12] was “markedly decreased” and the “accumulation of pSMAD3+ cells” value [3, 12] was “markedly decreased”. For the same compound, the “dermal and subcutaneous type I collagen deposition” value [3, 12] was “significantly decreased”, the “increase in decay-adjusted 99Tc uptake of the sacral lymph nodes” value [3, 12] was about 4 fold and the “increase in peak nodal uptake of 99Tc” value [3, 12] was about 4 fold. The “numbers of leukocytes infiltrating the dermis and subcutaneous fat” value [3, 12] was “markedly decreased” and the “rate of 99Tc uptake (slope of decay-adjusted curve)” value [3, 12] was “increased”.
